Test results from patent US6737383B1, “Herbicidal oxadiazolidines” (priority 1999, dated 2004).

Legend:
[1] = tested on: pigweed; assay: Test B pre/postemergence pigweed; type: in vivo, Amaranthus retroflexus
Procedure, shortened: (§1)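 Response is a visual 0-to-10 score relative to untreated plants, where 0 means no effect and 10 means complete control, taken twelve to sixteen days after application. Treatments went onto soil at planting and onto foliage of 1- to 4-leaf plants, using a surfactant-containing non-phytotoxic solvent.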

[2] = tested on: corn; assay: Test B pre/postemergence corn; type: in vivo, Zea mays
Procedure, shortened: as §1

[3] = tested on: morningglory; assay: Test B pre/postemergence morningglory; type: in vivo, Ipomoea hederacea
Procedure, shortened: as §1

[4] = tested on: sugar beet; assay: Test B pre/postemergence sugar beet; type: in vivo, Beta vulgaris; details: for Plant response rating, Sugarbeets: Rate 250 g/ha
Procedure, shortened: as §1

[5] = tested on: bamyardgrass; assay: Test B flood test barnyardgrass; type: in vivo, Echinochloa crus-galli
Procedure, shortened: (§2)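 Plants were grown to the 2-leaf stage before treatment with test chemical, then held in a greenhouse for twelve to sixteen days. Injury was visually rated against untreated controls on a 0–10 scale, where 0 is no effect and 10 is complete control.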

[6] = tested on: rape; assay: Test B pre/postemergence rape; type: in vivo, Brassica napus
Procedure, shortened: as §1

[7] = tested on: giant foxtail; assay: Test B pre/postemergence giant foxtail; type: in vivo, Setaria faberii
Procedure, shortened: as §1

[8] = tested on: purple nutsedge; assay: Test B pre/postemergence purple nutsedge; type: in vivo, Cyperus rotundus
Procedure, shortened: as §1

[9] = tested on: velvetleaf; assay: Test B pre/postemergence velvetleaf; type: in vivo, Abutilon theophrasti; details: for Plant response rating, Velvetleaf: Rate 250 g/ha
Procedure, shortened: as §1

[10] = tested on: duck salad; assay: Test B flood test duck salad; type: in vivo, Heteranthera limosa
Procedure, shortened: as §2

[11] = tested on: blackgrass; assay: Test B pre/postemergence blackgrass; type: in vivo, Alopecurus myosuroides
Procedure, shortened: as §1

[12] = tested on: bedstraw; assay: Test B pre/postemergence bedstraw; type: in vivo, Galium aparine
Procedure, shortened: as §1

[13] = tested on: surinam grass; assay: Test B pre/postemergence surinam grass; type: in vivo, Brachiaria decumbens
Procedure, shortened: as §1

[14] = tested on: cocklebur; assay: Test B pre/postemergence cocklebur; type: in vivo, Xanthium strumarium
Procedure, shortened: as §1

[15] = tested on: rice; assay: Test B flood test rice; type: in vivo, Oryza sativa
Procedure, shortened: as §2

[16] = Postemergence, Rate 125 g/ha, scale of 0 to 10 where 0 is no effect and 10 is complete control
[17] = Preemergence, Rate 62 g/ha, scale 0 to 10 (0 no effect, 10 complete control)
[18] = Preemergence, Rate 125 g/ha, scale 0 to 10 (0 no effect, 10 complete control)
[19] = Preemergence, Rate 250 g/ha, scale of 0 to 10 where 0 is no effect and 10 is complete control
[20] = Preemergence, Rate 500 g/ha, scale 0 to 10 (0 no effect, 10 complete control)
[21] = Rate 62 g/ha, Postemergence, scale of 0 to 10 where 0 is no effect and 10 is complete control
[22] = Rate 500 g/ha, Postemergence, scale 0 to 10, 0 no effect, 10 complete control
[23] = Postemergence, Rate 250 g/ha, scale 0 to 10, 0 no effect, 10 complete control
[24] = Preemergence, Rate 125 g/ha, 0 is no effect, 10 is complete control
[25] = Preemergence, scale of 0 to 10 where 0 is no effect and 10 is complete control
[26] = Postemergence, scale 0 to 10, 0 is no effect, 10 is complete control
[27] = Postemergence, Rate 62 g/ha, scale 0 to 10, 0 is no effect, 10 is complete control
[28] = Rate 250 g/ha, headed Pre-emergence (flood test species), scale 0 to 10 (0 no effect, 10 complete control)
[29] = Rate 500 g/ha, headed Pre-emergence (flood test species), scale 0 to 10 (0 no effect, 10 complete control)
[30] = Rate 500 g/ha, listed under Postemergence (flood test species), scale 0 to 10, 0 no effect, 10 complete control
[31] = Rate 1000 g/ha, Pre-emergence (as headed), scale 0 to 10
[32] = flood test, listed under Postemergence, Rate 250 g/ha, scale 0 to 10, 0 no effect, 10 complete control
[33] = Postemergence (flood test species), Rate 125 g/ha, scale of 0 to 10 where 0 is no effect and 10 is complete control
[34] = Rate 62 g/ha, Postemergence section, flood test species, scale of 0 to 10 where 0 is no effect and 10 is complete control
[35] = Rate 2000 g/ha, Pre-emergence (as headed), scale 0 to 10
[36] = Rate 125 g/ha, Postemergence, scale 0 to 10, 0 no effect, 10 complete control

Question: Which results are given for `CCn1c(=O)on(C(=O)N(c2ccccc2)C(C)C)c1=O` [Compound 117]?
Answer: Redroot pigweed plant response rating [1, 16]: 0; Redroot pigweed plant response rating [1, 17]: 9; Plant response rating, Redroot pigweed [1, 18]: 10; Plant response rating, Redroot pigweed [1, 19]: 10; Redroot pigweed plant response rating [1, 20]: 10; Redroot pigweed plant response rating [1, 21]: 0; Plant response rating, Redroot pigweed ([1]; Rate 250 g/ha, Postemergence, scale 0 to 10, 0 is no effect, 10 is complete control): 0; Redroot pigweed plant response rating [1, 22]: 6; Corn plant response rating [2, 16]: 5; Corn plant response rating [2, 23]: 6; Corn plant response rating [2, 17]: 0; Plant response rating, Corn [2, 18]: 2; Plant response rating, Corn [2, 19]: 7; Corn plant response rating [2, 20]: 9; Corn plant response rating [2, 21]: 0; Corn plant response rating [2, 22]: 7; Morningglory plant response rating [3, 16]: 7; Morningglory plant response rating [3, 23]: 7; Morningglory plant response rating [3, 17]: 0; Plant response rating, Morningglory [3, 18]: 0; Plant response rating, Morningglory [3, 19]: 2; Morningglory plant response rating [3, 20]: 6; Morningglory plant response rating [3, 21]: 2; Morningglory plant response rating [3, 22]: 10; Sugarbeets plant response rating [4, 16]: 0; Sugarbeets plant response rating [4, 17]: 0; Sugarbeets plant response rating (0 to 10 scale) [4, 24]: 8; Plant response rating, Sugarbeets [4, 25]: 9; Sugarbeets plant response rating [4, 20]: 10; Sugarbeets plant response rating [4, 21]: 0; Plant response rating, Sugarbeets [4, 26]: 3; Sugarbeets plant response rating [4, 22]: 7; Barnyardgrass plant response rating [5, 27]: 0; Barnyardgrass plant response rating ([5]; Rate 125 g/ha, Postemergence section (flood test species), scale 0 to 10, 0 no effect, 10 complete control): 0; Barnyardgrass plant response rating [5, 28]: 0; Plant response rating, Barnyardgrass [5, 29]: 0; Barnyardgrass plant response rating [5, 30]: 3; Barnyardgrass plant response rating [5, 31]: 0; Barnyardgrass plant response rating ([5]; Rate 2000 g/ha, Pre-emergence (as headed), scale 0 to 10, 0 no effect, 10 complete control): 3; Barnyardgrass plant response rating [5, 32]: 2; Rape plant response rating [6, 16]: 0; Rape plant response rating [6, 23]: 2; Rape plant response rating [6, 17]: 6; Plant response rating, Rape [6, 18]: 10; Plant response rating, Rape [6, 19]: 10; Rape plant response rating [6, 20]: 10; Rape plant response rating [6, 21]: 0; Rape plant response rating [6, 22]: 6; Giant foxtail plant response rating [7, 16]: 9; Giant foxtail plant response rating [7, 23]: 9; Giant foxtail plant response rating [7, 17]: 10; Plant response rating, Giant foxtail [7, 18]: 10; Plant response rating, Giant foxtail [7, 19]: 10; Giant foxtail plant response rating [7, 20]: 10; Giant foxtail plant response rating [7, 21]: 9; Giant foxtail plant response rating [7, 22]: 9; Nutsedge plant response rating [8, 16]: 7; Nutsedge plant response rating [8, 23]: 7; Nutsedge plant response rating [8, 17]: 0; Plant response rating, Nutsedge [8, 18]: 0; Plant response rating, Nutsedge [8, 19]: 3; Nutsedge plant response rating [8, 20]: 7; Nutsedge plant response rating [8, 21]: 2; Nutsedge plant response rating [8, 22]: 7; Velvetleaf plant response rating [9, 16]: 3; Velvetleaf plant response rating [9, 17]: 6; Velvetleaf plant response rating (0 to 10 scale) [9, 24]: 8; Plant response rating, Velvetleaf [9, 25]: 10; Velvetleaf plant response rating [9, 20]: 10; Velvetleaf plant response rating [9, 21]: 0; Plant response rating, Velvetleaf [9, 26]: 6; Velvetleaf plant response rating [9, 22]: 8; Ducksalad plant response rating [10, 33]: 0; Ducksalad plant response rating [10, 34]: 0; Ducksalad plant response rating [10, 28]: 0; Plant response rating, Ducksalad [10, 29]: 0; Ducksalad plant response rating [10, 30]: 0; Ducksalad plant response rating [10, 31]: 0; Ducksalad plant response rating [10, 35]: 1; Ducksalad plant response rating [10, 32]: 0; Blackgrass plant response rating [11, 16]: 9; Blackgrass plant response rating [11, 23]: 9; Blackgrass plant response rating [11, 17]: 8; Plant response rating, Blackgrass [11, 18]: 8; Plant response rating, Blackgrass [11, 19]: 10; Blackgrass plant response rating [11, 20]: 10; Blackgrass plant response rating [11, 21]: 8; Blackgrass plant response rating [11, 22]: 9; Bedstraw plant response rating [12, 27]: 0; Bedstraw plant response rating [12, 23]: 2; Bedstraw plant response rating [12, 17]: 0; Plant response rating, Bedstraw [12, 18]: 0; Plant response rating, Bedstraw [12, 19]: 0; Bedstraw plant response rating [12, 20]: 0; Bedstraw plant response rating [12, 36]: 0; B. signalgrass plant response rating [13, 27]: 6; B. signalgrass plant response rating [13, 23]: 9; B. signalgrass plant response rating [13, 17]: 6; Plant response rating, B. signalgrass [13, 18]: 9; Plant response rating, B. signalgrass [13, 19]: 9; B. signalgrass plant response rating [13, 20]: 10; B. signalgrass plant response rating [13, 36]: 8; B. signalgrass plant response rating ([13]; Rate 500 g/ha, Postemergence, scale of 0 to 10 where 0 is no effect and 10 is complete control): 9; Cocklebur plant response rating [14, 16]: 0; Cocklebur plant response rating [14, 23]: 0; Cocklebur plant response rating [14, 17]: 0; Plant response rating, Cocklebur [14, 18]: 0; Plant response rating, Cocklebur [14, 19]: 0; Cocklebur plant response rating [14, 20]: 0; Cocklebur plant response rating [14, 21]: 0; Cocklebur plant response rating [14, 22]: 1; Rice plant response rating [15, 33]: 0; Rice plant response rating [15, 34]: 0; Plant response rating, Rice ([15]; Rate 250 g/ha, Postemergence (flood test), scale 0 to 10, 0 is no effect, 10 is complete control): 0; Rice plant response rating [15, 28]: 0; Plant response rating, Rice [15, 29]: 0; Rice plant response rating [15, 30]: 0; Rice plant response rating [15, 31]: 0; Rice plant response rating [15, 35]: 0
